Experiments:
h-TGR5 = target: T1, h-TGR5 (Homo sapiens, UniProt Q8TDU6); test: TGR5 cAMP Assay using Cisbio cAMP Dynamic 2 htrf assay kit; type: cell-based; settings: hTGR5CRE-luc HEK 293 cells
T1 sequence (Q8TDU6 1-330): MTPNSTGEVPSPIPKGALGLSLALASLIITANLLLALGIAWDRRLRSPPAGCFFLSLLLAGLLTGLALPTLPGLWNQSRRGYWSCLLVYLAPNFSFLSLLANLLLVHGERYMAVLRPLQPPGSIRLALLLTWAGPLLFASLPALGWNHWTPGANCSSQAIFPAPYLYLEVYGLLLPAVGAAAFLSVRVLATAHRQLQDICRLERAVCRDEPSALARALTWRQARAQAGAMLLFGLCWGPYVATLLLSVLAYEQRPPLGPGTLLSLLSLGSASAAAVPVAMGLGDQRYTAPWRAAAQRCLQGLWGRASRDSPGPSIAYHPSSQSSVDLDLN
Description: Compounds were diluted in DPBS with 5% DMSO (8-point serial dilution by half logs) in a 96-well plate and 1 μL was transferred to a 384-well assay plate in quadruplicate. The d2-cAMP and anti-cAMP Ab-cryptate stock solution were prepared as per the instructions in the Cisbio™ (Bedford, Mass.) kit. Cells (hTGR5CRE-luc HEK 293 and mTGR5CRE-luc HEK 293) were harvested using cell dissociation buffer and resuspended in DPBS. Cells were adjusted to 0.44×10^6 cells/ml followed by addition of IBMX to a final concentration of 0.5 mM. The cells were then mixed with d2-cAMP solution (7.1 mL cells+100 ul d2-cAMP) and 4000 cells (9 μL) were transferred to each well of the 384-well assay plate. Cells without d2-cAMP were added to eight wells as a negative control. The plate was covered and incubated at room temp for 30 min. Then 10 μL of Ab-cryptate solution was added to each well of the assay plate and incubated for 1 hr. The plate was read on an EnVision™ plate reader (Perkin-Elmer, Waltham, Mass.) and the DeltaF value was calculated as per the instructions in the Cisbio™ kit.
(§1) In the following tables, ECso values determined according to the TGR5 cAMP Assay are noted (cAMP); EC50 values determined according to the TGR5/CRE-Luciferiase Assay are noted (CRE-Luc).

human TGR5 (h-TGR5) = target: T2, human TGR5 (h-TGR5) (Homo sapiens, UniProt Q8TDU6); test: TGR5/CRE-Luciferase Assay; type: cell-based; settings: HEK 293 hTGR5/CRE-Luc cells, 6 hours incubation, read-out: CRE-Luc Agonist (EC50)
T2 sequence (Q8TDU6 1-330): T1 sequence (Q8TDU6 1-330)
Description: HEK 293 cells stably expressing human TGR5 (h-TGR5) or mouse TGR5 (m-TGR5) were generated from HEK 293 CRE-Luciferase cells. The day before the assay, HEK 293 hTGR5/CRE-Luc cells were plated in DMEM in a 384 well assay plate at a density of 25 k cells/45 μL per well and grown for 18-20 hours. Compounds were serially diluted in DMEM containing 5% DMSO and 5 µL of compound or media alone was transferred to each well and plates were incubated for 6 hours. Following incubation, 30 μL of lysis/luciferase buffer was added to each well. The luciferase activity was then measured on the EnVision™ plate reader and the dose response data was analyzed using ActivityBase.
as §1

Compound | EC50 (h-TGR5) [µM] | EC50 (human TGR5 (h-TGR5)) [µM]
COC(=O)c1cc(-n2c(C(C)(C)c3ccc(Cl)c(OC)c3)cnc2SCc2c(F)cc(S(=O)(=O)NCCC[N+](C)(C)C)cc2F)ccc1F [Example 6g, 3-{[(4-{[(5-{1-[4-chloro-3-(methyloxy)phenyl]-1-methylethyl}-1-{4-fluoro-3-[(methyloxy)carbonyl]phenyl}-1H-imidazol-2-yl)thio]methyl}-3,5-difluorophenyl)sulfonyl]amino}-N,N,N-trimethylpropan-1-aminium] | 0.1 to 1 | 0.1 to 1
COc1cc(C(C)(C)c2cnc(SCc3c(F)cc(S(=O)(=O)N(CC4CC[N+](C)(C)CC4)[C@H](C)C(=O)O)cc3F)n2-c2ccc(F)cc2)ccc1Cl [Compound 15, 2,2,2-trifluoroacetate] | < 0.1 | < 0.1
CC[N+](C)(C)CCCN(C)S(=O)(=O)c1cc(F)c(CSc2ncc(C(C)(C)c3ccc(F)c(OC)c3)n2-c2ccc(F)cc2)c(Cl)c1 [Compound 14m, 3-[{[3-chloro-5-fluoro-4-({[5-{1-[4-fluoro-3-(methyloxy)phenyl]-1-methylethyl}-1-(4-fluorophenyl)-1H-imidazol-2-yl]thio}methyl)phenyl]sulfonyl} (methyl)amino]-N-ethyl-N,N-dimethylpropan-1-aminium] | < 0.1 | < 0.1
COc1cc(C(C)(C)c2cnc(SCc3c(F)cc(S(=O)(=O)N(CCC[N+](C)(C)C)CCC(=O)O)cc3F)n2-c2ccc(F)cc2)ccc1Cl [Compound 14r, 3-[(2-carboxyethyl){[4-({[5-{1-[4-chloro-3-(methyloxy)phenyl]-1-methylethyl}-1-(4-fluorophenyl)-1H-imidazol-2-yl]thio}methyl)-3,5-difluorophenyl]sulfonyl}amino]-N,N,N-trimethylpropan-1-aminium] | < 0.1 | < 0.1
COc1cc(C(C)(C)c2cnc(SCc3c(F)cc(S(=O)(=O)N(C)CCC[N+](C)(C)C)cc3F)n2-c2ccc(F)cc2)ccc1Cl [Compound 12a, 3-(4-((5-(2-(4-chloro-3-methoxyphenyl)propan-2-yl)-1-(4-fluorophenyl)-1H-imidazol-2-ylthio)methyl)-3,5-difluoro-N-methylphenylsulfonamido)-N,N,N-trimethylpropan-1-aminium 2,2,2-trifluoroacetate] | < 0.1 | < 0.1
CCN([C@@H](CCC[N+](C)(C)C)C(=O)O)S(=O)(=O)c1cc(F)c(CSc2ncc(C(C)(C)c3ccc(Cl)c(OC)c3)n2-c2ccc(F)cc2)c(F)c1 [Compound 17a, (S)-4-carboxy-4-(4-((5-(2-(4-chloro-3-methoxyphenyl)propan-2-yl)-1-(4-fluorophenyl)-1H-imidazol-2-ylthio)methyl)-N-ethyl-3,5-difluorophenylsulfonamido)-N,N,N-trimethylbutan-1-aminium 2,2,2-trifluoroacetate] | < 0.1 | < 0.1
COc1cc(C(C)(C)c2cnc(SCc3c(F)cc(S(=O)(=O)N4CC(C[N+](C)(C)C)C4)cc3Cl)n2-c2ccc(F)cc2)ccc1Cl [Compound 11r, (1-{[3-chloro-4-({[5-{1-[4-chloro-3-(methyloxy)phenyl]-1-methylethyl}-1-(4-fluorophenyl)-1H-imidazol-2-yl]thio}methyl)-5-fluorophenyl]sulfonyl}azetidin-3-yl)-N,N,N-trimethylmethanaminium] | < 0.1 | < 0.1
COc1cc(C(C)(C)c2cnc(SCc3c(F)cc(S(=O)(=O)N(CCC[N+](C)(C)C)[C@@H](CCC(=O)O)C(=O)O)cc3F)n2-c2ccc(F)cc2)ccc1Cl [Compound 14ag, (S)-3-(4-((5-(2-(4-chloro-3-methoxyphenyl)propan-2-yl)-1-(4-fluorophenyl)-1H-imidazol-2-ylthio)methyl)-N-(1,3-dicarboxypropyl)-3,5-difluorophenylsulfonamido)-N,N,N-trimethylpropan-1-aminium] | 0.1 to 1 | < 0.1
COc1cc(C(C)(C)c2cnc(CCc3c(F)cc(C(=O)NCC[N+](C)(C)C)cc3Cl)n2-c2ccc(F)cc2)ccc1Cl [Example 1f, 2-{[(3-chloro-4-{2-[5-{1-[4-chloro-3-(methyloxy)phenyl]-1-methylethyl}-1-(4-fluorophenyl)-1H-imidazol-2-yl]ethyl}-5-fluorophenyl)carbonyl]amino}-N,N,N-trimethylethanaminium] | < 0.1 | < 0.1
COc1cc(C(C)(C)c2cnc(SCc3c(F)cc(C(=O)NCC4(O)CC[N+](C)(C)CC4)cc3Cl)n2-c2ccc(F)cc2)ccc1Cl [Example 2m, 4-[({[3-chloro-4-({[5-{1-[4-chloro-3-(methyloxy)phenyl]-1-methylethyl}-1-(4-fluorophenyl)-1H-imidazol-2-yl]thio}methyl)-5-fluorophenyl]carbonyl}amino)methyl]-4-hydroxy-1,1-dimethylpiperidinium] | < 0.1 | < 0.1

Second part, the compound after the results:

EC50 (h-TGR5) [µM] | EC50 (human TGR5 (h-TGR5)) [µM] | Compound
< 0.1 | < 0.1 | COc1cc(C(C)(C)c2cnc(SCc3c(F)cc(S(=O)(=O)N4CCC[C@@H]([N+](C)(C)C)C4)cc3Cl)n2-c2ccc(F)cc2)ccc1F [Compound 11p, (3R)-1-{[3-chloro-5-fluoro-4-({[5-{1-[4-fluoro-3-(methyloxy)phenyl]-1-methylethyl}-1-(4-fluorophenyl)-1H-imidazol-2-yl]thio}methyl)phenyl]sulfonyl}-N,N,N-trimethylpiperidin-3-aminium]
< 0.1 | < 0.1 | COc1cc(C(C)(C)c2cnc(SCc3c(F)cc(S(=O)(=O)NCCC[n+]4ccccc4)cc3Cl)n2-c2ccc(F)cc2)ccc1F [Example 9, 1-(3-(3-chloro-5-fluoro-4-((5-(2-(4-fluoro-3-methoxyphenyl)propan-2-yl)-1-(4-fluorophenyl)-1H-imidazol-2-ylthio)methyl)phenylsulfonamido)propyl)pyridinium methanesulfonate]
< 0.1 | < 0.1 | COc1cc(C(C)(C)c2cnc(SCc3c(F)cc(S(=O)(=O)N(CCC[N+](C)(C)C)[C@@H](C)C(=O)O)cc3Cl)n2-c2ccc(F)cc2)ccc1Cl [Compound 14x, 3-([(1S)-1-carboxyethyl]{[3-chloro-4-({[5-{1-[4-chloro-3-(methyloxy)phenyl]-1-methylethyl}-1-(4-fluorophenyl)-1H-imidazol-2-yl]thio}methyl)-5-fluorophenyl]sulfonyl}amino)-N,N,N-trimethylpropan-1-aminium]
< 0.1 | < 0.1 | COc1cc(C(C)(C)c2cnc(SCc3c(F)cc(C(=O)N4CCC([N+](C)(C)C)CC4)cc3Cl)n2-c2ccc(F)cc2)ccc1Cl [Example 2l, 1-{[3-chloro-4-({[5-{1-[4-chloro-3-(methyloxy)phenyl]-1-methylethyl}-1-(4-fluorophenyl)-1H-imidazol-2-yl]thio}methyl)-5-fluorophenyl]carbonyl}-N,N,N-trimethylpiperidin-4-aminium]
< 0.1 | < 0.1 | COc1cc(C(C)(C)c2cnc(SCc3c(F)cc(C(=O)N[C@H]4CC[N+](C)(Cc5ccc(F)cc5)C4)cc3Cl)n2-c2ccc(F)cc2)ccc1Cl (stereo partly drawn) [Example 2e, (3S)-3-({[3-chloro-4-({[5-{1-[4-chloro-3-(methyloxy)phenyl]-1-methylethyl}-1-(4-fluorophenyl)-1H-imidazol-2-yl]thio}methyl)-5-fluorophenyl]carbonyl}amino)-1-[(4-fluorophenyl)methyl]-1-methylpyrrolidinium]
< 0.1 | < 0.1 | COc1cc(C(C)(C)c2cnc(SCc3c(F)cc(S(=O)(=O)N4CCC[C@@H](C[N+](C)(C)C)C4)cc3Cl)n2-c2ccc(F)cc2)ccc1F [Compound 11u, [(3S)-1-{[3-chloro-5-fluoro-4-({[5-{1-[4-fluoro-3-(methyloxy)phenyl]-1-methylethyl}-1-(4-fluorophenyl)-1H-imidazol-2-yl]thio}methyl)phenyl]sulfonyl}piperidin-3-yl]-N,N,N-trimethylmethanaminium]
< 0.1 | < 0.1 | COc1cc(C(C)(C)c2cnc(SCc3c(F)cc(CCC[N+](C)(C)C)cc3Cl)n2-c2ccc(F)cc2)ccc1Cl [Compound 19d, 3-(3-chloro-4-((5-(2-(4-chloro-3-methoxyphenyl)propan-2-yl)-1-(4-fluorophenyl)-1H-imidazol-2-ylthio)methyl)-5-fluorophenyl)-N,N,N-trimethylpropan-1-aminium 2,2,2-trifluoroacetate]

Reference: US8846739B2, “TGR5 agonists” (Exelixis Patent Company LLC, priority 2009, dated 2014)
